{"source": "paper PMC6403188", "about": "“Species-Specific Structural Requirements of Alpha-Branched Trehalose Diester Mincle Agonists” (Frontiers in Immunology, 2019)", "key": {"mouse Mincle": {"target": "T1, mouse Mincle (Mus musculus, UniProt Q9R0Q8)", "T1 construct": "host or cells: HEK (HEK-Blue) cells with NF-κB-driven SEAP reporter", "T1 sequence (Q9R0Q8 1-214)": "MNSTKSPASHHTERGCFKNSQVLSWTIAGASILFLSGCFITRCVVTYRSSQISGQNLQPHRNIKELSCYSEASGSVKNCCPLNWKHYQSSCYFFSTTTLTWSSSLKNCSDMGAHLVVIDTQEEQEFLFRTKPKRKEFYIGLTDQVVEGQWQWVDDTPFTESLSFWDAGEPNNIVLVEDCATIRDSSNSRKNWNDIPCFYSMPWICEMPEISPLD", "test": "HEK cells expressing mouse Mincle with NF-κB-driven SEAP reporter", "format": "cell-based", "conditions": "average calculated EC50, n = 3; plate-coated compound, 24 h; read-out: mMincle EC50 (converted)", "method": "Human and mouse Mincle expressing HEK cells were obtained from Invivogen (San Diego, CA). Cells were cultured according to the manufactures instructions in DMEM with 10% FBS, 50 U/ml penicillin, […] streptomycin, […] Normocin, 2 mM L-glutamine, 30 μg/ml blasticidin, 1 μg/ml puromycin and 1x HEK-Blue™ CLR Selection. For assay, indicated compounds were serially diluted in diluent (50%IPA/50% isooctane), 20 μl of a 10x final concentration were applied to the bottom of a 96-well tissue culture plate and the solvent was evaporated for >1 h in a biosafety hood. HEK cells were applied to the plates at a density of 3 × 10^5 cells/well and incubated for 18–24 h at 37°C. Cell supernatants were harvested and analyzed via the manufacturer's instructions using Hek-Blue^TM Detection. SEAP activity was assessed by reading the optical density (OD) at 620–655 nm with a microplate reader; data are expressed as the fold change in OD over vehicle treated cells.\nTo investigate the capacity of these molecules to bind to and activate the Mincle receptor, we used human embryonic kidney (HEK) cells expressing the human or mouse Mincle receptor along with an NF-κB-driven secreted embryonic alkaline phosphatase (SEAP) reporter. Many of the αTDE compounds were able to induce production of SEAP in a dose dependent manner (Figure 2). HEK null cells (HEK cells containing the NF-kB reporter without Mincle receptor) were used as a negative controls to confirm the receptor specificity of the compounds in HEK cells expressing human or mouse Mincle reporter (Supplemental Figure 4). […] The relative activity of TDM and TDB in the human and mouse HEK cells is consistent with the results reported by others ([20]). […] This synthetic version is a shorter chain version of the lipid-derived one reported to be “human-specific” ([28]).\nFigure 2 Activation of human or mouse Mincle in response to synthetic αTDE compounds. The indicated compounds were dissolved in 50% isopropanol/isooctane, serially diluted in vehicle and then dried to the bottom of a tissue culture plate. HEK cells transfected with human (A–C) or mouse (D–F) Mincle and an NF-κB-driven SEAP reporter were incubated with the compounds for 24 h followed by assessment of the supernatants for SEAP levels. Data are represented as fold change in OD650 over vehicle treated cells. Graphs are mean values from three independent experiments ± SEM. Table in (G) represents the average calculated EC50 and average max SEAP value (± SD, n = 3) for each compound in each cell line. […]"}, "primary human PBMCs": {"system": "primary human PBMCs", "test": "Cytokine production from primary human PBMCs (multiplex)", "format": "cell-based", "conditions": "plate-coated compound, 24 h, 5 individual donors", "from_the_text": "PBMCs were obtained via leukapheresis from normal donors (AllCells, Berkeley, CA) or fresh blood was obtained from health human donors through a University of Montana Institutional Review Board (IRB) approved protocol. PBMCs obtained via leukapheresis were washed in 1x PBS and cryopreserved in freezing media (50% RPMI, 40% FCS, 10% DMSO) for future use. PBMCs from on-site human donors were separated from whole blood via density gradient separation using Histopaque 1077 (Sigma). Cells were washed in RPMI media containing 10% heat inactivated FBS, penicillin/streptomycin/glutamine (complete media) and resuspended at the desired cell concentration in complete media. Cells were treated with the indicated compound concentrations by addition to plates coated with a serial dilution of the stock compound in diluent (50% isopropanol/50% isooctane, fully evaporated).\nSupernatants were harvested from treated cells following 18–24 h of incubation. Supernatants were analyzed using a DuoSet TNFα ELISA (R&D Systems, Minneapolis, MN) or Luminex multiplex panel for analytes TNFα, IL-1β, IL-6, IFNγ, IL-12p70, and IL-23 (R&D Systems) per the manufacturer's instructions. Multiplex analysis was performed using a Luminex 200 instrument (Luminex Corporation) and analyzed with StarStation2.3 software. ELISAs were read on a plate reader at 450 nm and cytokine concentration was calculated by fitting the standard curve OD values to a 4-parameter logistical model using curve fitting software (XLfit, IDBS, Alameda, CA).\nTo determine if the abridged cytokine repertoire induced by the compounds from the cell lines was a cell-specific or compound-specific phenomenon, the response of a heterogeneous primary human PBMCs to the αTDE compound library was also evaluated. Primary human PBMCs were incubated with the αTDE compound and supernatants were evaluated by multiplex cytokine ELISA for TNFα, IL-1β, IL-23, IL-6 (Th17 associated) and IFNγ and IL-12p70 (Th1 associated). As with THP-1 cells, robust dose-responsive induction of TNFα and IL-1β was detected, but unlike the THP-1 cells dose-responsive stimulation of IL-6 and IL-23 production was also noted in response to a subset of the αTDE compounds (Figure 5). No production of the Th1-associated IFNγ or IL-12p70 were detected (data not shown). […] Consistent with the previous THP-1 cell responses, the longer chain length compounds, B32-B46, induced minimal cytokine responses only at the highest dose evaluated (Figure 5, right graphs).\nFigure 5 Cytokine production from primary human mononuclear cells in response to stimulation with synthetic trehalose diester compounds. […] Cryopreserved PBMCs were thawed and applied to the compound-coated plates and incubated at 37°C; supernatant was harvested 24 h later and analyzed for TNFα, IL-1β, IL-23, IL-6. […]"}, "[1]": {"system": "Hek Blue human or mouse Mincle-expressing cells", "format": "cell-based", "conditions": "top concentrations, 24 h; compared with vehicle only-treated cells"}, "BALB/c mice [2]": {"system": "BALB/c mice", "test": "Splenocyte restimulation with M72 and intracellular cytokine staining of CD4/CD8 T cells after vaccination", "format": "in vivo, mouse", "method": "(§1) Animal studies were carried out in an OLAW and AAALAC accredited vivarium in accordance with University of Montana's IACUC guidelines for the care and use of laboratory animals. Groups of 10–14 BALB/c mice were vaccinated intramuscularly with 0.125 μg M72 antigen and indicated concentrations of various CLR adjuvant candidates (liposomal formulations) in 50 μl total volume per injection. After 14 days, blood and serum samples were collected and a secondary vaccination was administered. At day 19 (5 days post-secondary vaccination), 3–6 mice per group were euthanized and spleens were harvested the assessment of cell-mediated immunity. At day 28 (14 days post booster vaccination) the remaining 7 mice in each group were euthanized and blood was collected for the measurement of M72 specific humoral immunity.\nSpleens were harvested from vaccinated mice 5 days after secondary injections and splenocytes were harvested by disruption of the spleens through a 100 μm filter. Red blood cells were lysed by incubation with red blood cell lysis buffer (Sigma) for 5 min followed by washing in 1x PBS. Cells were plated in a 96 well plate at 5 × 10^6 cells/well in 200 μL complete RPMI1640 media. Cells were incubated with 1 μg/mL M72 antigen for […] at 37°C. After 7 h, GolgiPlug (Brefeldin A, BD Biosciences) was added to each well and incubated at 37°C for a further 12 h. Following incubation, cells were stained with the cell surface antibodies against CD3e PerCP-Cy5.5 (Tonbo Biosciences, 145-2C11), CD4a APC-Cy7 (Tonbo Biosciences, RM4-5) and CD8a PE-Cy7 (Tonbo Biosciences, 53–6.7) and viability stain (Ghost 510, Tonbo Biosciences). Cells were treated with cytofix/cytoperm (BD) and stained with anti-IFNγ PE-CF594 (BD, XMG1.2), anti-IL2 FITC (Biolegend, JES6-5H4), anti-IL-5 PE (BD, TRFK5), anti-IL17A BV421 (Biolegend, TC11-18H10.1), and anti-TNFα APC (Invitrogen, MP6-XT22). Data was collected using an LSRII flow cytometer (BD) and analyzed using FlowJo 10.0 software (TreeStar). Splenocytes were gated on live, single cells, then CD3+ to identify all T cells, then gated as CD4+CD8- to identify CD4 T cells or CD4-CD8+ to identify CD8 T cells. Gates for intracellular cytokine positive CD4 or CD8 T cells are set based on re-stimulation of naïve splenocytes. Gating strategies for the detection of antigen specific CD4+ and CD8+ T cells are outlined in Supplemental Figure 3.\nFigure 7 Induction of IL-17 producing CD4+ and CD8+ T cells from an αTDE adjuvanted M72 vaccine. BALB/c mice, 10 per group, were immunized two times i.m. with 0.125 μg antigen plus 2, 10, or 50 nmol of the indicated adjuvant. Spleens were harvested from a subset of 3 mice per group at 5 days post-secondary vaccination. Splenocytes were restimulated with 1 μg/mL whole antigen and transport inhibitors followed by surface staining for CD3, CD4, and CD8 and then intracellular cytokine staining. Data represent percentage of live, CD3^+/CD4^+, left, or CD3^+/CD8^+, right, cells that are also positive for IL-17A upon stimulation.\n(§2) Figure 8 B16 liposomes biases a Th17/Th2 adaptive immune response. BALB/c mice, 14 per group, were immunized twice, 14 days apart, i.m with 0.1, 1, or 10 μg of M72 antigen plus either blank DDA:DSPC liposome or B16 loaded (10 nmol final dose) liposome. (A,B) M72-specific serum antibody titers at 14 days post-secondary vaccination. (C–F) Spleens were harvested from mice at 5 days post-secondary vaccination and restimulated with 1 μg/mL whole antigen and transport inhibitors followed by surface staining for CD3, CD4, and CD8 and then intracellular cytokine staining. (C) Percent of live, CD3^+/CD4^+/IL5+ cells, (D) Percent of live, CD3^+/CD8^+/IFNγ+ cells, (E) Percent of live, CD3^+/CD4^+/IL17+ cells, and (F) Percent of live, CD3^+/CD8^+/IL17+ cells. ^*p < 0.05, ^**p < 0.01, ^****p < 0.001.\nSupplemental Figure 10. Production of IFNɣ, IL-2, IL-5 or TNFα by CD4 or CD8 T cells in response to various CLR compounds. […]"}, "BALB/c mice [3]": {"system": "BALB/c mice", "test": "Anti-M72 serum antibody ELISA after i.m. vaccination with M72 antigen plus liposomal adjuvant", "format": "in vivo, mouse", "conditions": "0.125 μg M72 antigen plus 2, 10, or 50 nmol adjuvant in DDA:DSPC liposomes, i.m. two times, 14 days post-secondary vaccination", "method": "as §1\nSera was collected from mice 14 days post-primary and 14 days post-secondary injection and diluted according to the expected antibody response (between 1:10 and 1:5000). Plates were coated with 100 μl of the full-length M72 protein at 1 μg/mL. Following washing (PBS plus tween 20) and blocking (SuperBlock, Scytek Laboratories), plates were incubated with diluted serum for 1 h followed by anti-mouse IgG, IgG1, or IgG2a-HRP secondary antibody (Bethyl Laboratories) and TMB substrate (BD). Plates were read at 450 nm. Antibody titers were determined by calculating titer of each sample at OD 0.3.\nFigure 6 Serum antibody levels from mice in response to vaccination with recombinant M72 antigen and various αTDE compounds. BALB/c mice, 10 per group, were vaccinated two times i.m. with 0.125 μg antigen plus 2, 10, or 50 nmol of the indicated adjuvant. Serum was analyzed from 7 mice at 14 days post-secondary vaccination for presence of anti-M72 IgG1 and IgG2a antibodies via ELISA.\nas §2"}}, "data": [{"smiles": "CCC(CC)C(=O)OC[C@H]1O[C@H](O[C@H]2O[C@H](COC(=O)C(CC)CC)[C@@H](O)[C@H](O)[C@H]2O)[C@H](O)[C@@H](O)[C@@H]1O", "note": "[Compound B6]", "values": [{"measurement": "EC50", "setting": "mouse Mincle", "result": 0.739, "unit": "µM"}, {"measurement": "Th17-associated cytokine production (TNFα, IL-1β, IL-6, IL-23) from human PBMCs", "setting": "primary human PBMCs", "result": "mixed responses"}]}, {"smiles": "CCCC(CCC)C(=O)OC[C@H]1O[C@H](O[C@H]2O[C@H](COC(=O)C(CCC)CCC)[C@@H](O)[C@H](O)[C@H]2O)[C@H](O)[C@@H](O)[C@@H]1O", "note": "[Compound B8]", "values": [{"measurement": "EC50", "setting": "mouse Mincle", "result": 2.85, "unit": "µM"}, {"measurement": "Th17-associated cytokine production (TNFα, IL-1β, IL-6, IL-23) from human PBMCs", "setting": "primary human PBMCs", "result": "readily detected"}, {"measurement": "Cell viability of Mincle HEK cells", "setting": "[1]", "result": "marked decreases in viability"}]}, {"smiles": "CCCCC(CCCC)C(=O)OC[C@H]1O[C@H](O[C@H]2O[C@H](COC(=O)C(CCCC)CCCC)[C@@H](O)[C@H](O)[C@H]2O)[C@H](O)[C@@H](O)[C@@H]1O", "note": "[Compound B10]", "values": [{"measurement": "EC50", "setting": "mouse Mincle", "result": 3.45, "unit": "µM"}, {"measurement": "Th17-associated cytokine production (TNFα, IL-1β, IL-6, IL-23) from human PBMCs", "setting": "primary human PBMCs", "result": "readily detected"}, {"measurement": "Cell viability of Mincle HEK cells", "setting": "[1]", "result": "marked decreases in viability"}]}, {"smiles": "CCCCCCCCCCCCCCCCCCCCC(CCCCCCCCCCCCCCCCCCCC)C(=O)OC[C@H]1O[C@H](O[C@H]2O[C@H](COC(=O)C(CCCCCCCCCCCCCCCCCCCC)CCCCCCCCCCCCCCCCCCCC)[C@@H](O)[C@H](O)[C@H]2O)[C@H](O)[C@@H](O)[C@@H]1O", "note": "[Compound B42]", "values": [{"measurement": "IL-5 production in CD8+ T cells", "setting": "BALB/c mice [2]; 2 nmol adjuvant, 0.125 μg antigen, over liposome control", "result": "increased"}, {"measurement": "IL-5 production in CD8+ T cells", "setting": "BALB/c mice [2]; 50 nmol adjuvant, 0.125 μg antigen, over naïve and liposome control", "result": "increased"}, {"measurement": "IL-17+ CD4+ and CD8+ T cells (Th17 response) after M72 re-stimulation", "setting": "BALB/c mice [2]; 0.125 μg antigen plus 2, 10, or 50 nmol liposomal adjuvant, i.m. two times, spleens 5 days post-secondary", "result": "able to drive superior Th17 responses"}, {"measurement": "TNFα production by T cells", "setting": "BALB/c mice [2]; highest dose evaluated, 0.125 μg antigen, compared to controls", "result": "increased compared to controls"}, {"measurement": "Anti-M72 serum IgG1 and IgG2a antibody", "setting": "BALB/c mice [3]", "result": "neither compound significantly enhanced"}]}]}
